From patent publication US20070021360A1, “Compositions, formulations and kit with anti-sense oligonucleotide and anti-inflammatory steroid and/or obiquinone for treatment of respiratory and lung disesase” (priority 2001, published 2007)

What was measured:
HT-29 SF cells [1] = experiment: DHEA effect on cell cycle distribution (flow cytometry); format: cell-based, human; conditions: 25, 50, or 200 μM DHEA; 24, 48, 72 hours
Protocol: Cells were plated at 10^5/60-rm dish in duplicate. […] Cultures were trypsinized following […] and fixed and stained using a modification of a procedure of Bauer et al., Cancer Res., 46, 3173-3178 (1986). Briefly, cells were collected by centrifugation and resuspended in cold phosphate-buffered saline. Cells were fixed in 70% ethanol, washed, and resuspended in phosphate-buffered saline.
After 24, 48, and 72 hours, cells were harvested, fixed in ethanol, and stained with propidium iodide, and the DNA content/cell was determined by flow cytometric analysis. The percentage of cells in G1, S, and G2M phases was calculated using the Cellfit cell cycle analysis program. S phase is marked by a quadrangle for clarity. Representative histograms from duplicate determinations are shown. The experiment was repeated three times.
A transient increase in G2M phase cells was apparent after 48 hours.

G6PDH = experiment: Enzymatic assay of purified G6PDH; conditions: in vitro; compared to control
Protocol: All experiments were repeated 4 times.
A second group was added different concentrations of a CoQ of long side chain (in triplicate), and a third group received a CoQ of short side chain (in triplicate), both at various doses in the μM range.
The reaction was started by addition of the enzyme, and the increase in absorbance at 340 nm was measured for 5 minutes. Each data point was conducted in triplicate, and the full experiment was repeated 4 times.

HT-29 SF cells [2] = experiment: DHEA effect on cell growth (Coulter counter)
Protocol: Cell cultures, HT-29 SF cells, which represent a subline of HY-29 cells (ATCC, Rockville, Md.) and are adapted for growth in completely defined serum-free PC-1 medium (Ventrex, Portland, Me.), were obtained. Stock cultures were maintained in this medium at 37° in a humidified atmosphere containing 5% CO2.

## C[C@]12CC[C@H](O)CC1=CC[C@@H]1[C@@H]2CC[C@]2(C)C(=O)CC[C@@H]12 [DHEA, 3β-hydroxyandrost-5-en-17-one]
HT-29 SF cells [1]
  effect on cell cycle distribution: G1 block
G6PDH
  inhibition of activity of purified G6PDH: 72%
HT-29 SF cells [2]; 0-200 μM DHEA, 0-72 hours
  inhibition of growth: time- and dose-dependent inhibition of growth
HT-29 SF cells [2]; 12.5 μM DHEA
  exposure time after which cell number was reduced compared to controls: 72 h
HT-29 SF cells [2]; 200 μM DHEA
  exposure time after which cell number was reduced compared to controls: 24 h
HT-29 SF cells [2]; 25 or 50 μM DHEA
  exposure time after which cell number was reduced compared to controls: 48 h
